According to patent publication US3969532A, “1-Aryl-3-(2-hydroxyethyl) thioureas for treating depression” (The Dow Chemical Company, priority 1975, dated 1976):
Like-named read-outs stand apart in the source and are kept apart here.

Test system: reserpine-induced ptosis
Test: Antagonism of reserpine-induced ptosis in mice (antidepressant test)
Type: in vivo
Conditions: for inhibition of reserpine-induced ptosis (in words): comparative trials, dosages of 60 mg/kg (i.p.); for ED50: Mus musculus, 1.25 h
[1] = mice, compound oral 30 minutes before i.p. reserpine, ptosis noted 45 minutes after reserpine, read-out: ED50 (median effective dose protecting 50% of mice from reserpine-induced ptosis), oral
[2] = ip, mice, compound i.p. 30 minutes before i.p. reserpine, ptosis noted 45 minutes after reserpine, read-out: ED50 (median effective dose protecting 50% of mice from reserpine-induced ptosis), i.p.

Experimental: The antidepressant properties of the compounds employed in the methods of the present invention are determined by measuring their ability to counteract ptosis induced in animals by the intraperitoneal injection of reserpine. […] Forty-five minutes after the administration of reserpine, the presence or absence of ptosis is noted. The percent inhibition of ptosis is noted and the median effective dose (ED50) of each test ingredient which protected 50% of the test mice from reserpine-induced ptosis was calculated.

Structure (SMILES) | inhibition of reserpine-induced ptosis (in words) | ED50 [1] [mg/kg] | ED50 [2] [mg/kg] | ED50 (po, read-out: ED50 (median effective dose protecting 50% of mice from reserpine-induced ptosis), oral) [mg/kg]
COc1ccc(NC(=S)NCCO)cc1OC [3,4-dimethoxy] | did not inhibit reserpine-induced ptosis |  |  | 
Cc1ccc(CNC(=S)NCCO)c(C)c1 [Compound 1, 1-(2,4-dimethylbenzyl)-3-(2-hydroxyethyl)thiourea] |  | 6.8 | 11 | 
COc1ccc(NC(=S)NCCO)c(C)c1 [Compound 2, 1-(4-methoxy-2-methylphenyl)-3-(2-hydroxyethyl)thiourea] |  | 16.2 | 10 | 
COc1ccccc1NC(=S)NCCO [Compound 2-methoxy] | did not inhibit reserpine-induced ptosis |  |  | 
COc1ccc(NC(=S)NCCO)c(OC)c1 [Compound 3, 1-(2,4-dimethoxyphenyl)-3-(2-hydroxyethyl)thiourea] |  |  | 38 | 
CN(C)CCC=C1c2ccccc2COc2ccccc21 [Doxepin] |  | 27 | 27 | 
CN(C)CCCN1c2ccccc2CCc2ccccc21 [Imipramine] |  |  |  | 14
